Data from patent publication US20260152487A1 (Sitryx Therapeutics Limited, priority 2021, published 2026).

Biological target: T1, recombinant human PKM2 (Homo sapiens, UniProt P14618)
T1 construct: His (N); purchased R&D Systems
Assay: Human PKM2 activation assay (Kinase-Glo Plus luminescent detection of generated ATP)
Format: biochemical
Settings: for Emax: percentage activation normalised to DMSO vehicle (LOW) and 5 μM TEPP-46 (HIGH), read-out: hPKM2 Emax; for EC50: recombinant human PKM2 activation, 4-parameter logistic fit, read-out: hPKM2 EC50
In short: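 N-His-tagged recombinant hPKM2 ([…]) with PEP and ADP was incubated with compound for 60 min at 26 °C, shaking, in 50 mM imidazole, 50 mM KCl, 7 mM MgCl2, 0.01% Tween20, 0.05% BSA, pH 7.2. ATP produced was read by Kinase-Glo Plus luminescence after 15 min.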

T1 sequence (P14618 2-531 limits assumed): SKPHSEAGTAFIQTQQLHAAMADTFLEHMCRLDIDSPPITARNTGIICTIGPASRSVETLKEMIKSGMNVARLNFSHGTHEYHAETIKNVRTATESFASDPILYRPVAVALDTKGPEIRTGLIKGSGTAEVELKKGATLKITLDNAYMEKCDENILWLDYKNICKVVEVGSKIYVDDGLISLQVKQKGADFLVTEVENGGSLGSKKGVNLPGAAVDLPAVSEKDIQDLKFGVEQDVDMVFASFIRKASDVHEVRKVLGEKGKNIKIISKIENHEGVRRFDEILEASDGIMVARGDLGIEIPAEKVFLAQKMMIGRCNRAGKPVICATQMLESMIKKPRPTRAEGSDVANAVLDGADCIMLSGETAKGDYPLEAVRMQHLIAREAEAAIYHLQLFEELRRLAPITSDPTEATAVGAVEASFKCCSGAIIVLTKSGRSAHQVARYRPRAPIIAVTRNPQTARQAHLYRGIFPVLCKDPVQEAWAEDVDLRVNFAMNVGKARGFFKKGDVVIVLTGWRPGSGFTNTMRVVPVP

Cn1cc(S(=O)(=O)c2ccc3c(=O)n(Cc4cccc(C5(O)COC5)n4)ncc3c2)cn1 [Example 283, 2-((6-(3-hydroxyoxetan-3-yl)pyridin-2-yl)methyl)-6-((1-methyl-1H-pyrazol-4-yl)sulfonyl)phthalazin-1(2H)-one]
Emax: 78.6% | EC50: 441 nM

COc1ccc(Cn2ncc3cc(OC4(c5ccccc5)COC4)ncc3c2=O)cn1 [Example 125, 3-((6-methoxypyridin-3-yl)methyl)-7-((3-phenyloxetan-3-yl)oxy)pyrido[3,4-d]pyridazin-4(3H)-one]
Emax: 88.8% | EC50: 458 nM

COc1ccc(Cn2ncc3cc(S(=O)(=O)c4ccccc4Cl)ccc3c2=O)cn1 [Example 163, 6-(2-chlorophenylsulfonyl)-2-((6-methoxypyridin-3-yl)methyl)phthalazin-1(2H)-one]
Emax: 77.3% | EC50: 135 nM

COc1ccc(S(=N)(=O)c2ccc3c(=O)n(Cc4ccc(OC)nc4)ncc3c2)cc1 (racemic) [Example 137, 6-(4-methoxyphenylsulfonimidoyl)-2-((6-methoxypyridin-3-yl)methyl)phthalazin-1(2H)-one]
Emax: 81.9% | EC50: 129 nM

Cc1nc(S(=O)(=O)c2ccc3c(=O)n(Cc4cc5n(n4)CCO5)ncc3c2)cs1 [Example 357]
Emax: 100% | EC50: 77.1 nM

N=S(=O)(c1ccccc1)c1ccc2c(=O)n(Cc3cccc(N)c3)ncc2c1 (stereo not shown) [Example 120, 2-(3-aminobenzyl)-6-(phenylsulfonimidoyl)phthalazin-1(2H)-one]
Emax: 103% | EC50: 234 nM

COc1ccc(Cn2ncc3cc(S(=O)(=O)c4ccccc4F)ccc3c2=O)cn1 [Example 162, 6-(2-fluorophenylsulfonyl)-2-((6-methoxypyridin-3-yl)methyl)phthalazin-1(2H)-one]
Emax: 99.5% | EC50: 83.4 nM

COc1cccc(S(=O)(=O)c2ccc3c(=O)n(Cc4cc[nH]n4)ncc3c2)n1 [Example 286, 2-((1H-pyrazol-3-yl)methyl)-6-((6-methoxypyridin-2-yl)sulfonyl)phthalazin-1(2H)-one]
Emax: 105% | EC50: 246 nM

COc1ccc(Cn2ncc3cc(S(=O)(=O)c4cccc(F)c4)ccc3c2=O)cn1 [Example 157, 6-((3-fluorophenyl)sulfonyl)-2-((6-methoxypyridin-3-yl)methyl)phthalazin-1(2H)-one]
Emax: 87.5% | EC50: 123 nM

COc1cccc(Cn2ncc3cc(S(=O)(=O)c4ccccc4)ccc3c2=O)c1C(N)=O [Example 92, 2-methoxy-6-((1-oxo-6-(phenylsulfonyl)phthalazin-2(1H)-yl)methyl)benzamide]
Emax: 98.9% | EC50: 158 nM

COc1ccc(F)c(Cn2ncc3cc(S(=O)(=O)c4ccn(C)n4)ccc3c2=O)c1 [Example 199, 2-(2-fluoro-5-methoxybenzyl)-6-((1-methyl-1H-pyrazol-3-yl)sulfonyl)phthalazin-1(2H)-one]
Emax: 91.4% | EC50: 109 nM

O=c1c2ccc(S(=O)(=O)c3cn[nH]c3)cc2cnn1Cc1ccc2c(n1)OCCO2 [Example 344]
Emax: 107% | EC50: 31.5 nM

COc1ccc(Cn2ncc3cc(S(=O)(=O)c4cnn(C)c4C)ccc3c2=O)cn1 [Example 190, 6-(1,5-dimethyl-1H-pyrazol-4-ylsulfonyl)-2-((6-methoxypyridin-3-yl)methyl)phthalazin-1(2H)-one]
Emax: 102% | EC50: 225 nM

Cc1cc(S(=O)(=O)c2ccc3c(=O)n(Cc4ccc5c(n4)CCO5)ncc3c2)n[nH]1 [Example 359]
Emax: 112% | EC50: 24.2 nM

Cn1ccc(Cn2ncc3cc(S(=N)(=O)c4ccccc4)ccc3c2=O)n1 (stereo not shown) [Example 262, 2-((1-methyl-1H-pyrazol-3-yl)methyl)-6-(phenylsulfonimidoyl)phthalazin-1(2H)-one]
Emax: 110% | EC50: 647 nM

Cn1ccc(Cn2ncc3cc(S(=O)(=O)c4cnn(CCO)c4)ccc3c2=O)n1 [Example 264, 6-((1-(2-hydroxyethyl)-1H-pyrazol-4-yl)sulfonyl)-2-((1-methyl-1H-pyrazol-3-yl)methyl)phthalazin-1(2H)-one]
Emax: 94.6% | EC50: 204 nM

Cn1cc(S(=O)(=O)c2ccc3c(=O)n(Cc4ccc5occc5n4)ncc3c2)cn1 [Example 330]
Emax: 108% | EC50: 20.6 nM

C[C@H](O)c1cccc(Cn2ncc3cc(S(=O)(=O)c4cnn(C)c4)ccc3c2=O)n1 (single isomer, unassigned) [Example 278]
Emax: 78.6% | EC50: 434 nM

COc1ccc(Cn2ncc3cc(S(=N)(=O)c4ccc5c(c4)CCO5)ccc3c2=O)cn1 (racemic) [Example 127, 6-(2,3-dihydrobenzofuran-5-sulfonimidoyl)-2-((6-methoxypyridin-3-yl)methyl)phthalazin-1(2H)-one]
Emax: 68.3% | EC50: 43.3 nM

Cc1c[nH]nc1Cn1ncc2cc(S(=O)(=O)c3cnn(C)c3)ccc2c1=O [Example 313]
Emax: 92.3% | EC50: 196 nM

Cn1ccc(S(=O)(=O)c2ccc3c(=O)n(Cc4ccccc4C(N)=O)ncc3c2)n1 [Example 210, 2-((6-(1-methyl-1H-pyrazol-3-ylsulfonyl)-1-oxophthalazin-2(1H)-yl)methyl)benzamide]
Emax: 87.4% | EC50: 318 nM

COc1ccc(Cn2ncc3cc(S(=O)(=O)c4ccc(C)cn4)ccc3c2=O)cn1 [Example 115, 2-((6-methoxypyridin-3-yl)methyl)-6-(5-methylpyridin-2-ylsulfonyl)phthalazin-1(2H)-one]
Emax: 69.8% | EC50: 276 nM

Cc1cc(Cn2ncc3cc(S(=O)(=O)c4ccc5c(c4)CCO5)ccc3c2=O)n[nH]1 [Example 209, 6-((2,3-dihydrobenzofuran-5-yl)sulfonyl)-2-((5-methyl-1H-pyrazol-3-yl)methyl)phthalazin-1(2H)-one]
Emax: 118% | EC50: 23.2 nM

NC(=O)c1c(Cl)cccc1Cn1ncc2cc(S(=O)(=O)c3ccccc3)ccc2c1=O [Example 91, 2-chloro-6-((1-oxo-6-(phenylsulfonyl)phthalazin-2(1H)-yl)methyl)benzamide]
Emax: 89.9% | EC50: 554 nM

COc1ccc(Cn2ncc3cc(S(=O)(=O)c4cccc5sc(C)nc45)ccc3c2=O)cn1 [Example 176, 2-((6-methoxypyridin-3-yl)methyl)-6-(2-methylbenzo[d]thiazol-4-ylsulfonyl)phthalazin-1(2H)-one]
Emax: 95.8% | EC50: 455 nM

O=c1c2ccc(S(=O)(=O)c3cc[nH]n3)cc2cnn1Cc1ccn(C2CC2)n1 [Example 339]
Emax: 110% | EC50: 67.8 nM

COc1ccc(Cn2ncc3cc(S(=O)(=O)c4cc[nH]n4)ccc3c2=O)cn1 [Example 140, 6-((1H-pyrazol-3-yl)sulfonyl)-2-((6-methoxypyridin-3-yl)methyl)phthalazin-1(2H)-one]
Emax: 107% | EC50: 192 nM

COc1ccc(Cn2ncc3cc(S(=O)(=O)c4ccc5c(c4)CCO5)ccc3c2=O)cn1 [Example 126, 6-((2,3-dihydrobenzofuran-5-yl)sulfonyl)-2-((6-methoxypyridin-3-yl)methyl)phthalazin-1(2H)-one]
Emax: 95.3% | EC50: 18.9 nM

COc1ccc(Cn2ncc3cc(S(=O)(=O)c4cccc(C(N)=O)c4)ccc3c2=O)cn1 [Example 161, 3-(2-((6-methoxypyridin-3-yl)methyl)-1-oxo-1,2-dihydrophthalazin-6-ylsulfonyl)benzamide]
Emax: 56.8% | EC50: 211 nM

O=c1c2ccc(S(=O)(=O)c3csc(C4CC4)n3)cc2cnn1Cc1cc[nH]n1 [Example 346]
Emax: 96.7% | EC50: 42.3 nM

Cc1cccc(Cn2ncc3cc(S(=O)(=O)c4cnn(C5CNC5)c4)ccc3c2=O)n1 [Example 276, 6-((1-(azetidin-3-yl)-1H-pyrazol-4-yl)sulfonyl)-2-((6-methylpyridin-2-yl)methyl)phthalazin-1(2H)-one]
Emax: 102% | EC50: 518 nM

COc1ccc(Cn2ncc3cc(S(=O)(=O)c4cc[nH]n4)ccc3c2=O)nc1 [Example 325]
Emax: 111% | EC50: 151 nM

Cc1cc(Cn2ncc3cc(S(=O)(=O)c4cnn(C)c4)ncc3c2=O)n[nH]1 [Example 331]
Emax: 93.3% | EC50: 167 nM

COc1ccc(Cn2ncc3cc(S(=O)(=O)c4cc(C)ns4)ccc3c2=O)cn1 [Example 148, 2-((6-methoxypyridin-3-yl)methyl)-6-(3-methylisothiazol-5-ylsulfonyl)phthalazin-1(2H)-one]
Emax: 71.3% | EC50: 58.4 nM

O=c1c2cnc(S(=O)(=O)c3cn[nH]c3)cc2cnn1Cc1ccc2c(n1)CCO2 [Example 347]
Emax: 104% | EC50: 24.5 nM

COc1ccc(Cn2ncc3cc(S(=O)(=O)c4cccc(OC)n4)ccc3c2=O)cn1 [Example 160, 6-(6-methoxypyridin-3-yl)methyl)phthalazin-1(2H)-onemethoxypyridin-2-ylsulfonyl)-2-((6-]
Emax: 83.3% | EC50: 237 nM

Cn1cc(S(=O)(=O)c2ccc3c(=O)n(Cc4cc(F)[nH]n4)ncc3c2)cn1 [Example 322]
Emax: 104% | EC50: 231 nM

O=c1c2ccc(S(=O)(=O)c3cnn(CC(F)(F)F)c3)cc2cnn1Cc1cc[nH]n1 [Example 361]
Emax: 93.2% | EC50: 79.4 nM

Cc1cc(Cn2ncc3cc(S(=O)(=O)c4cnn(C)c4)ccc3c2=O)n[nH]1 [Example 312]
Emax: 102% | EC50: 215 nM

O=c1c2ccc(S(=O)(=O)c3ccncc3)cc2cnn1Cc1cc[nH]n1 [Example 254, 2-((1H-pyrazol-3-yl)methyl)-6-(pyridin-4-ylsulfonyl)phthalazin-1(2H)-one]
Emax: 107% | EC50: 498 nM

Cn1ccc2cc(S(=O)(=O)c3ccc4c(=O)n(Cc5cc[nH]n5)ncc4c3)ccc21 [Example 231, 2-((1H-pyrazol-3-yl)methyl)-6-((1-methyl-1H-indol-5-yl)sulfonyl)phthalazin-1(2H)-one]
Emax: 111% | EC50: 93.5 nM
